Test results as given in patent US20050170391A1, “TAUT1 transporters expressed in blood brain barrier cells” (Xenoport, Inc., priority 2004, published 2005).

Biological target: T1, TAUT1 (Homo sapiens, UniProt P31641)
T1 sequence (P31641 1-620): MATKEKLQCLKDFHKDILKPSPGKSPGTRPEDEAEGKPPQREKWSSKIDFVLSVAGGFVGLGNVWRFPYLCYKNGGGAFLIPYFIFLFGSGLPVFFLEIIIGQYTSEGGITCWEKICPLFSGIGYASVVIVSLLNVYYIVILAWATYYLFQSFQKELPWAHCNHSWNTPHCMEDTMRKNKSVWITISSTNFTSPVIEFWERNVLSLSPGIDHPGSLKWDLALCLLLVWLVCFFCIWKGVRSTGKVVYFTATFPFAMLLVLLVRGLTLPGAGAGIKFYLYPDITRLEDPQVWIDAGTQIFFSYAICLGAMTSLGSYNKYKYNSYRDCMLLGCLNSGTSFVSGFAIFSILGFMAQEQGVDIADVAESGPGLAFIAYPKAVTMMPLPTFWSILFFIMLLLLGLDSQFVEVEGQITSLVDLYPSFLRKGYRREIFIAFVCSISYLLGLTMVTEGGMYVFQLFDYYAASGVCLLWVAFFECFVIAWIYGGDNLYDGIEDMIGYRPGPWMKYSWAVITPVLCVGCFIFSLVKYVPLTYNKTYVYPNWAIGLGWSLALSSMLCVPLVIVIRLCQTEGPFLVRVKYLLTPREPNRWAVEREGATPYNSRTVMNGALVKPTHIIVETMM
Test: hTAUT1 direct uptake assay in HEK-TREx-TAUT1 cells (LC-MS-MS)
Format: cell-based
Set-up: expressed in transfected cells; host or cells: HEK-TREx cells (HEK-TREx-TAUT1 inducible line)
Conditions: direct uptake into HEK-TREx-TAUT1 cells, +TET minus no TET; 15 min, room temperature
Protocol: A modified direct uptake assay was developed to determine the ability of test compounds to be transported into HEK-TREx cells induced to over-express hTAUT. Four concentrations (bracketing the affinity as measured by competition assays) per compound were routinely tested. Non-specific uptake was determined by measuring the uptake into cells not induced to express the transporter (“no tet”).
Typically, four concentrations bracketing the IC50 were tested. The highest test concentration for each compound was made in an eppendorf tube and diluted into HBSS. The samples were robustly vortexed and centrifuged for 10 minutes at 13,200 rpm to spin down any precipitate. […] Three additional 2-fold dilutions were made in the subsequent rows (B-D or […]) in HBSS.
An internal standard of 50 μM propranolol in 50:50 ethanol:water was also prepared. To prepare standard curves, several concentrations of the test compounds were diluted into HEK cell extract (prepared from tet-treated, mock-incubated and extracted cells as described below) with a final internal standard concentration of 5 μM. Standards of 10, 5, 1, 0.5, 0.1, 0.05, 0.01 and 0.005 μM were routinely run for each test compound.
HEK-TREx-hTAUT cells were plated in 96-well plates and treated with plus (columns 1-3 and 7-9) or without tetracycline (or a tetracycline analog; columns 4-6 and 10-12). The cells were removed from the incubator, and the growth media was removed from the cells. The cells were washed twice in room temperature HBSS (100 μl/well/wash) using a 96-well plate washer (Bio Tek ELX405). Alternatively, cells were washed manually with equivalent volumes using a multichannel pipettor. Immediately before the assay was begun, the final 100 μl wash solution was removed from the cells. The assay was started by using a 96-well pipettor to add 50 μl from the “compound” plate to each well of the HEK-TREx-hTAUT cell plate. The plate was incubated at room temperature for 15 minutes.
After the final wash, as much of the wash buffer as possible was removed by aspirating the wells with a probe that reached the bottom of the wells. (Residual salts from the wash buffer can adversely affect the LC-MS-MS by disrupting the LC method or by suppressing the MS signal.) 150 μl of a 50:50 ethanol:water solution was added to each well to lyse the cells and extract the test compound. The plate was covered and allowed to sit for 20 minutes at room temperature to ensure cell lysis. (The 50% ethanol solution is the generic solution for extraction. For compounds soluble in water or other solvents compatible with the LC-MS-MS, such solutions can be tried to determine they interfere with the LC-MS-MS analysis. If the organic solvent concentration is too high (>50%), it may be detrimental to the LC run).
120 μl of the cell extract was removed from each well and transferred to a fresh 96-well v-bottom polypropylene plate. This plate was covered with an adherent cover (top seal) and centrifuged for 15 minutes at 5,700 rpm (Allegra 25R centrifuge) at 4° C. to pellet any cell precipitate. 10 μl of the 50 μM propranolol solution was added to each well of a fresh 96-well plate (a plate amenable for sampling in the LC-MS-MS). 90 μl of the supernatant from the centrifuged cell extract was removed and transferred to the plate containing the 10 μl of propranolol (using the Cybi-well 96-well pipettor). The sample plate with a bubble lid suitable for use with the LC-MS-MS and placed on a plate shaker for 5 to 10 minutes to mix the sample and the propranolol. The samples were submitted for LC-MS-MS analysis. The levels of intracellular compounds were determined by converting the peak area to concentration by extrapolating from the standard curve for each compound. Uptake was expressed as μM/well.
While the uptake values in these experiments were expressed as “μM/well”, the values can be easily converted to “pmol/well” or “pmol/well/unit time”. All of the samples were extracted with 150 μl of extraction buffer.

Row | Structure (SMILES) | Vmax [μM/well] | Km [µM] | pKm
1 | O=C(O)Cc1c[nH]cn1 [IAA, 4-imidazole acetic acid] | 6.1 |  | 
2 | NCCCC(=O)O [GABA, γ-aminobutyric acid] | 12 |  | 
3 | N=C(N)NCCC(=O)O [GPA] | 6.4 | 120 | 4.0
4 | NCC(CC(=O)O)c1ccc(Cl)cc1 (centres unmarked) [R,S-Baclofen] | 5.4 | 1700 | 2.9
